Molecular target: T1, Rheb (Homo sapiens, UniProt Q15382)
T1 construct: GST-tagged Rheb amino acids 1–169
Assay: RP-HPLC of nucleotide released from purified denatured GST-Rheb
Assay type: binding

T1 sequence (Q15382 1-169): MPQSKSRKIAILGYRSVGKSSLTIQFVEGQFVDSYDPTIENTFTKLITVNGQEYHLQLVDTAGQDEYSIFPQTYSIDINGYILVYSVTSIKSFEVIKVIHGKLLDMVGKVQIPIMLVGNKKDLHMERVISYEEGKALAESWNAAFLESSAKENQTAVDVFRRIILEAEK

## Nc1nc2c(ncn2[C@@H]2O[C@H](CO[P@](=O)(O)OP(=O)(O)O)[C@@H](O)[C@H]2O)c(=O)[nH]1 [GDP]
  RP-HPLC of nucleotide released from purified denatured GST-Rheb: glutathione-S-transferase (GST)-tagged Rheb, which had a substantial GDP-bound fraction

— publication PMC12205066, “Lysosomal EGFR acts as a Rheb-GEF independent of its kinase activity to activate mTORC1” (Cell Research, 2025)
